Data published in patent publication US5231103A, “Quinolin-2-yl-methoxybenzylhydroxyureas” (Bayer Aktiengesellschaft, priority 1991, dated 1993).

Molecular target: T1, 5-LO (Homo sapiens, UniProt P09917)
T1 construct: release of leukotriene B4 (LTB4) in polymorphonuclear human leucocytes (PMN); endogenous in cells; host or cells: human polymorphonuclear leucocytes (PMN)
T1 sequence (P09917 1-674): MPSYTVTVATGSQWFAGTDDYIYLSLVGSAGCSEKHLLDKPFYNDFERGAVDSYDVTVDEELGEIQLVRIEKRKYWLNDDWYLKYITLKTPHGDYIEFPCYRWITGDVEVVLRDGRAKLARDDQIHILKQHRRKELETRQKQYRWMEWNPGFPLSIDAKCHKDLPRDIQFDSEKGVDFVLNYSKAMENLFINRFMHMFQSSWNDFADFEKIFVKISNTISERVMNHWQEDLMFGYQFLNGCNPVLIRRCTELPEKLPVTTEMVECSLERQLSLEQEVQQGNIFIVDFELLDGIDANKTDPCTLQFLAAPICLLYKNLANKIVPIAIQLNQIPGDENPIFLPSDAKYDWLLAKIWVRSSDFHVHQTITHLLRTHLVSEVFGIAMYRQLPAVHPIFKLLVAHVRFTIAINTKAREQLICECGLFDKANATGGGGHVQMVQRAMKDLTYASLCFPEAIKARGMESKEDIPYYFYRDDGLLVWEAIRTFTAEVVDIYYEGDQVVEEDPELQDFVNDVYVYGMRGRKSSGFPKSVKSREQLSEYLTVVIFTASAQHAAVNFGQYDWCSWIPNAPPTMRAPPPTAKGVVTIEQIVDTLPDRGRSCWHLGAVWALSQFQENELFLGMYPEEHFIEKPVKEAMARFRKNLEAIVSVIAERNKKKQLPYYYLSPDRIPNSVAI
Assay: lipoxygenase inhibition: release of leukotriene B4 (LTB4) in polymorphonuclear human leucocytes (PMN) after Ca ionophore, by reverse phase HPLC
Format: cell-based
Settings: LTB4 release in human PMN after addition of substance and Ca ionophore; RP-HPLC
Method: As a measure of lipoxygenase inhibition, the release of leukotriene B4 (LTB4) in polymorphonuclear human leucocytes (PMN) after addition of substances and Ca ionophore was determined by means of reverse phase HPLC according to Borgeat, P. et al., Proc. Nat. Acad. Sci., 76, 2148-2152 (1979).

**Q.** `NC(=O)N(O)C(c1ccc(OCc2ccc3ccccc3n2)cc1)C1CCCCC1` (centres unmarked) [Example 1, N-[4-(Quinolin-2-yl-methoxy)phenyl-cyclohexyl]methyl-N-hydroxyurea] was tested. Which IC50 did it give?
**A.** 250 nM

**Q.** How did the IC50 turn out when `NC(=O)N(O)C(c1ccc(OCc2ccc3ccccc3n2)cc1)C1CCCC1` (centres unmarked) [Example 2, N-[4-(Quinolin-2-yl-methoxy)phenyl-cyclopentyl]methyl-N-hydroxyurea] was run?
**A.** 1200 nM
